The record followed here is US20230172205A1 (priority 2020, published 2023).

The test system of assay [1] is Phakopsora pachyrhizi, strain with amino acid substitution F129L in the mitochondrial cytochrome b protein. The assay is described as follows: Protective control of soybean rust on soybeans (PHAKPA P6). Type of assay: in vivo. The settings on record: for % PHAKPA (F129L) Disease level, P6 at 4 ppm: protective P6, 4 ppm; for % PHAKPA (F129L) Disease level, P6 at 4 ppm / % PHAKPA (F129L) Disease level, P6 at 16 ppm: soybean rust F129L strain; for % PHAKPA (F129L) Disease level, P6 at 16 ppm: protective P6, 16 ppm.

Assay [2] concerns Alternaria solani, sensitive wild-type isolate (wt). The assay is described as follows: microbe, parasite or virus in culture. Type of assay: cell-based. The settings on record: 168 h, read-out: Fungal growth (%) ALTESO wt.
Assay [3] deals with Alternaria solani, Qo inhibitor-resistant isolate containing F129L in the mitochondrial cytochrome b protein. The assay is described as follows: Micro titer plate test, activity against Alternaria solani causing early blight (ALTESO), F129L. The note with it: Alternaria solani, 168 h. The assay is classed as cell-based.
For the next assay, the system named is Septoria tritici. Kind of assay: microbe, parasite or virus in culture. Type of assay: cell-based. The settings on record: Zymoseptoria tritici, 168 h, read-out: Fungal growth (%) SEPTTR.
Assay [4] has as its system Colletotrichum orbiculare. The assay is described as follows: microbe, parasite or virus in culture. Type of assay: cell-based. The settings on record: 168 h, read-out: Fungal growth (%) COLLLA.
The test system of assay [5] is Phakopsora pachyrhizi, strain with amino acid substitution F129L in the mitochondrial cytochrome b protein. Kind of assay: Protective control of soybean rust on soybeans (PHAKPA P2). The assay is classed as in vivo. The settings on record: for % PHAKPA (F129L) Disease level, P2 at 4 ppm: protective P2, 4 ppm; for % PHAKPA (F129L) Disease level, P2 at 4 ppm / % PHAKPA (F129L) Disease level, P2 at 16 ppm: soybean rust F129L strain; for % PHAKPA (F129L) Disease level, P2 at 16 ppm: protective P2, 16 ppm.

The next assay relates to Pyricularia oryzae. Kind of assay: microbe, parasite or virus in culture. The assay is classed as cell-based. The note with it: Pyricularia oryzae, 168 h, read-out: Fungal growth (%) PYRIOR.
Another assay concerns Microdochium nivale. The assay is described as follows: microbe, parasite or virus in culture. The assay is classed as cell-based. The settings on record: 168 h, read-out: Fungal growth (%) MONGNI.
Assay [6] has as its system Phakopsora pachyrhizi, isolate with amino acid substitution F129L in the mitochondrial cytochrome b protein. Kind of assay: Protective control of soybean rust on detached soybean leaves (PHAKPA P1 DL), F129L isolate. Type of assay: in vivo. The note with it: Table C6b.
Assay [7] relates to Phakopsora pachyrhizi, isolate sensitive to Qo inhibitors (wt). The assay is described as follows: Protective control of soybean rust on detached soybean leaves (PHAKPA P1 DL), wt isolate. Type of assay: in vivo. The note with it: Table C6a.

Where two headings read alike, the source gives them in different places.

In the case of `CNC(=O)/C(=N/OC)c1cccc(C)c1CO/N=C(\C)c1cccc(C)c1` [Ex. 77], in assay [1] (P6 at 16 ppm, untreated 75%), the “PHAKPA (F129L) Disease level (%), P6 at 16 ppm” value came to 20%. Further, in assay [1], the “% PHAKPA (F129L) Disease level, P6 at 4 ppm” value came out at 40% and the “% PHAKPA (F129L) Disease level, P6 at 16 ppm” value turned out to be 3%. Further, in assay [2], the activity at 0.016 ppm came to 73%. The activity at 0.016 ppm in assay [3] (Table C14, read-out: Fungal growth (%) ALTESO F129L) amounted to 69%. The activity at 0.25 ppm with Septoria tritici was 49%. Moreover, in [4], the activity at 0.063 ppm was 39%. In addition, the “PHAKPA (F129L) Disease level (%) P2 at 4 ppm” value in assay [5] (P2 at 4 ppm, untreated 92%) is 37%. Also, in [5], the “% PHAKPA (F129L) Disease level, P2 at 4 ppm” value is on record as 67% and the “% PHAKPA (F129L) Disease level, P2 at 16 ppm” value is 4%. In the assay on Pyricularia oryzae, the activity at 0.016 ppm is 20%.
For the compound `CNC(=O)/C(=N/OC)c1cccc(C)c1CO/N=C(\C)c1ccc(Cl)cc1` [Ex. 158], the activity at 0.016 ppm with Microdochium nivale was 71%; in assay [2], 66%; in [3] (Table C5, read-out: Fungal growth (%) ALTESO F129L), 79%; in the assay on Pyricularia oryzae, 38%. Besides, the “PHAKPA (F129L) Disease level (%) P6 at 4 ppm” value in assay [1] (Table C2, protective, inoculation six days after spraying, 4 ppm, % diseased leaf area on soybean, untreated 99) is on record as 4%. In addition, the “% PHAKPA (F129L) Disease level, P6 at 4 ppm” value in assay [1] stood at 2%. Besides, in assay [1], the “% PHAKPA (F129L) Disease level, P6 at 16 ppm” value was determined as 0%. Further, the “PHAKPA P1 DL Disease level (%), Qo I-resistant F129L isolate (100% F129L)” value in assay [6] (0.3 ppm, 0 ppm control 93) was 87%; in [6] (1 ppm) it was 57%; in assay [6] (3 ppm), 8%; in assay [6] (10 ppm), 2%; in [6] (30 ppm) it was 4%; in assay [6] (100 ppm) it was 4%. Further, the “PHAKPA P1 DL Disease level (%), Qo I-resistant F129L isolate (100% F129L)” value in assay [6] (300 ppm) came to 5%. Moreover, the “PHAKPA P1 DL Disease level (%), Qo I-sensitive wt isolate (0% F129L)” value in assay [7] (0.3 ppm, 0 ppm control 93) is 38%; in assay [7] (1 ppm), 7%; in assay [7] (3 ppm), 2%; in [7] (10 ppm), 1%; in [7] (30 ppm), 4%; in [7] (100 ppm) it was 5%. For the same compound, the “PHAKPA P1 DL Disease level (%), Qo I-sensitive wt isolate (0% F129L)” value in assay [7] (300 ppm) was found to be 4%. Further, the “PHAKPA (F129L) Disease level (%) P2 at 4 ppm” value in assay [5] (Table C2, protective, inoculation 2 days after spraying, 4 ppm, % diseased leaf area on soybean, untreated 100) is given as 1%. In addition, the “% PHAKPA (F129L) Disease level, P2 at 4 ppm” value in assay [5] worked out at 0%. The “% PHAKPA (F129L) Disease level, P2 at 16 ppm” value in assay [5] is on record as 0%.
